Measurements from US10669252B2, “Benzazepine derivative, preparation method, pharmaceutical composition and use thereof” (SHANGHAI DE NOVO PHARMATECH CO., LTD., priority 2016, dated 2020).
pEC50: −log10 of the molar value.

Columns and labels:
TLR7 = target: T1, TLR7 (Homo sapiens, UniProt Q9NYK1); assay: TLR7 cell based assay (HEK-BLUE-hTLR7, SEAP reporter linked to NF-κB activation); conditions: HEK-BLUE-hTLR7 cells, 24 hours treatment, SEAP/QUANTI-Blue readout
T1 construct: host or cells: HEK293 (HEK-BLUE-hTLR7)
T1 sequence (Q9NYK1 27-1049): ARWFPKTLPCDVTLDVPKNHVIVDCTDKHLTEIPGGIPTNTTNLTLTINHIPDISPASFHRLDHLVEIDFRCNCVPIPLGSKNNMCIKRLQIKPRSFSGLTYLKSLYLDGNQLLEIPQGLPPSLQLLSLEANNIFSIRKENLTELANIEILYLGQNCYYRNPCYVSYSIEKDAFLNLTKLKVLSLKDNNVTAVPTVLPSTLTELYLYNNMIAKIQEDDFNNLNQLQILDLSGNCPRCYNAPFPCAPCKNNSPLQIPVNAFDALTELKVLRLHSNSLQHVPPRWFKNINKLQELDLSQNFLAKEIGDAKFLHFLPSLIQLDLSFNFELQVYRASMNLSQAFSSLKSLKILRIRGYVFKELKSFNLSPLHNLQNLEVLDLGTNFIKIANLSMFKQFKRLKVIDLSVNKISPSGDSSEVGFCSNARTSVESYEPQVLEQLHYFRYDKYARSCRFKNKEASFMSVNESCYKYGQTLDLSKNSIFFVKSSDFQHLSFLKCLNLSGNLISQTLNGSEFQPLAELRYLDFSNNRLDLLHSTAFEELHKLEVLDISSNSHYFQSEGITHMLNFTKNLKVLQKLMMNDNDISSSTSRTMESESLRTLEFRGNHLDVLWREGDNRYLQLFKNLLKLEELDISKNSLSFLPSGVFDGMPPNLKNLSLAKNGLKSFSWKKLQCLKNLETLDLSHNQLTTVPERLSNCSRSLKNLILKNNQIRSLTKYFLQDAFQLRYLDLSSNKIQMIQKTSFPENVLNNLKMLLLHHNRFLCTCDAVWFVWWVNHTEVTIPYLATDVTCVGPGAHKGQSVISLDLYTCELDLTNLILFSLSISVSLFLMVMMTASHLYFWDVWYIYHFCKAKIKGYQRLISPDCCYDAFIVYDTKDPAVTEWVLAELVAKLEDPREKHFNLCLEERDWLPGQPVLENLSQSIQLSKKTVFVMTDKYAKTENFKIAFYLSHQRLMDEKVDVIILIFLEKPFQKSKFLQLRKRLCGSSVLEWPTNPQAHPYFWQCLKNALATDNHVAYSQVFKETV
Procedure: In this assay, the bioactivity of compound of formula (I) was measured using a cell based assay. The assay was performed in human embryonic kidney cells (HEK293) expressing TLR7 or other TLR family members such as TLR4, and TLR9 (for selectivity screens). The activity of specific TLR agonists was assessed using the secretory embryonic alkaline phosphatase (SEAP) reporter gene that is linked to NF-κB activation in response to TLR stimulation. The SEAP activity was measured using the Quanti-Blue substrate (InvivoGen) after TLR agonist treatment.
The detailed experimental method is as follow:
HEK-BLUE-hTLR7 cell line was purchased from InvivoGen. The cells were cultured in Dulbecco's Modified Eagle's Media containing 4.5 g/L […] (Sigma-Aldrich) and 10% FBS. The cells were cultured at 37° C., 95% humidity and 5% CO2.
[…] A known TLR8 agonist was added as positive control and 1 μl of DMSO was added as negative control.
The cells were prepared as follows. The cells were removed from the incubator and growth medium was discarded. The cells were gently rinsed with pre-warmed 10 ml PBS for a T-150 flask. 12 ml pre-warmed growth medium was added, and the cells were detached by tapping the flask. Cell clumps were dissociated by gently pipetting up and down. The cells were counted. Single cell suspension was prepared at 200,000 cells per ml in growth medium and 200 μl of the cell suspension (40,000 cells per well) were immediately added to each well of the plate. The final DMSO concentration of each well was 0.5%.
The cells were cultured and treated with the compounds at 37° C., 5% CO2 for 24 hours.
20 μL of the supernatant of each well were added to 180 μL of QUANTI-Blue, and the plates were incubated at 37° C. for 1.5 hour. Optical density was measured using a spectrophotometer at 650 nm (OD data). Activivation was calculated by using the equation below: Activivation %=(Compound OD mean value−DMSO OD mean value)/(positive control OD mean value−DMSO OD mean value)×100
The data were analyzed using the GraphPad to get EC50 values and fitting dose response curves of the compounds.

TLR8 = target: T2, TLR8 (Homo sapiens, UniProt Q9NR97); assay: TLR8 cell based assay (HEK-BLUE-hTLR8, SEAP reporter linked to NF-κB activation); conditions: HEK-BLUE-hTLR8 cells
T2 construct: host or cells: HEK293 (HEK-BLUE-hTLR8)
T2 sequence (Q9NR97 27-1041): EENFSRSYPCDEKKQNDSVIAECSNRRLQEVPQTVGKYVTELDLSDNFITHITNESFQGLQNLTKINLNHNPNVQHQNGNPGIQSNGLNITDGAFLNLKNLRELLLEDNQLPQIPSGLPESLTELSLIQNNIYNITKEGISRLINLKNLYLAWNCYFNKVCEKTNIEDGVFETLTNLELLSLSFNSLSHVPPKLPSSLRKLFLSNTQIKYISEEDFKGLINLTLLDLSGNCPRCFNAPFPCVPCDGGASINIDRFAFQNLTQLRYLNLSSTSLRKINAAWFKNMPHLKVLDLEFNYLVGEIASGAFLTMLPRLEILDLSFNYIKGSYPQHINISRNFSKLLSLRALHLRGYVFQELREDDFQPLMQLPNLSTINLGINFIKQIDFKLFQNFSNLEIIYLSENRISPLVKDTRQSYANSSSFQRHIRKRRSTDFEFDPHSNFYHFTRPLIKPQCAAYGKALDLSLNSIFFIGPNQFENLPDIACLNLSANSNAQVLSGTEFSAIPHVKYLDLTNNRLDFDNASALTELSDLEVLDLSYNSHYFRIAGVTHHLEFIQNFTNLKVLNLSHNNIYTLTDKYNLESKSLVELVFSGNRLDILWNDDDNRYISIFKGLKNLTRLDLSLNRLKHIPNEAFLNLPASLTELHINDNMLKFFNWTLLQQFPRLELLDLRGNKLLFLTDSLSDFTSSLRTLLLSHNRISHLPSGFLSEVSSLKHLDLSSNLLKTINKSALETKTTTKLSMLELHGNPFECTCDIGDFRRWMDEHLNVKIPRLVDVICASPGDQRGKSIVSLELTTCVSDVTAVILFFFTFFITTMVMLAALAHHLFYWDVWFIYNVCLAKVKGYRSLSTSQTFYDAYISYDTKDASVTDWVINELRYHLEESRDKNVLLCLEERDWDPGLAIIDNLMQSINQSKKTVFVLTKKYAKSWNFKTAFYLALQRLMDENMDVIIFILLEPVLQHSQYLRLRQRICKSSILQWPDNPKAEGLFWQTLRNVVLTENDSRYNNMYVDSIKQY
Procedure, shortened: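 HEK-BLUE-hTLR8 cells (40,000/well) exposed 24 h at 37° C, 5% CO2 to compound, 10 points from 0.5 nM to 15 μM, 0.5% DMSO. Supernatant SEAP read with QUANTI-Blue (1.5 h, 37° C) at OD 650 nm; activation % normalized to DMSO and TLR8 agonist control, EC50 fitted.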

[1] = 24 h treatment, SEAP/QUANTI-Blue readout

Question: Which results are given for `CCCN(CCC)C(=O)C1=Cc2ccc(-c3ccc4c(=O)n(CCO)cnc4c3)cc2N=C(N)C1` [Compound 1-7-4]?
Answer: pEC50 (TLR7): < 4.30; pEC50 (TLR8; [1]): > 7.00

Question: How did the pEC50 (TLR7) turn out when `CCCN(CCC)C(=O)C1=Cc2ccc(-c3ccc4c(=O)n(CC(N)=O)ncc4c3)cc2N=C(N)C1` [Compound 1-8-1] was run?
Answer: < 4.30

Question: What about the pEC50 (TLR8; [1]) of the same compound?
Answer: > 7.00

Question: `CCCN(CCC)C(=O)C1=Cc2ccc(-c3ccc4c(=O)n(CC(=O)NC)ncc4c3)cc2N=C(N)C1` [Compound 1-8-2] was tested. Which pEC50 (TLR7) did it give?
Answer: < 4.30

Question: And the pEC50 (TLR8; [1])?
Answer: > 7.00

Question: With `CCCN(CCC)C(=O)C1=Cc2ccc(-c3ccc4c(=O)n(CCO)ncc4c3)cc2N=C(N)C1` [Compound 1-8-3] as the compound, how does the pEC50 (TLR7) read?
Answer: < 4.30

Question: What about the pEC50 (TLR8; [1]) of the same compound?
Answer: > 7.00

Question: How did the pEC50 (TLR7) turn out when `CCCN(CCC)C(=O)C1=Cc2ccc(-c3ccc4c(=O)n(CC(C)(C)O)ncc4c3)cc2N=C(N)C1` [Compound 1-8-4] was run?
Answer: < 4.30

Question: And the pEC50 (TLR8; [1])?
Answer: > 7.00

Question: `CCCN(CCC)C(=O)C1=Cc2ccc(-c3ccc4c(=O)n(CCS(C)(=O)=O)ncc4c3)cc2N=C(N)C1` [Compound 1-8-5] was tested. Which pEC50 (TLR7) did it give?
Answer: < 4.30

Question: And the pEC50 (TLR8; [1])?
Answer: > 7.00

Question: What about the pEC50 (TLR8; bound stated) of the same compound?
Answer: > 8.00

Question: What does the source list for `CCCN(CCC)C(=O)C1=Cc2ccc(-c3ccc4c(=O)n(CCS(=O)(=O)CC)ncc4c3)cc2N=C(N)C1` [Compound 1-8-12]?
Answer: pEC50 (TLR7): 4.30 to 5.00; pEC50 (TLR8; [1]): > 7.00

Question: How did the pEC50 (TLR7) turn out when `CCCN(CCC)C(=O)C1=Cc2ccc(-c3ccc4c(=O)n(Cc5ncco5)ncc4c3)cc2N=C(N)C1` [Compound 1-8-15] was run?
Answer: 4.30 to 5.00

Question: And the pEC50 (TLR8; [1])?
Answer: > 7.00

Question: `CCCN(CCC)C(=O)C1=Cc2ccc(-c3ccc4c(=O)n(CCO)c(=O)n(C)c4c3)cc2N=C(N)C1` [Compound 1-9-1] was tested. Which pEC50 (TLR7) did it give?
Answer: < 4.30

Question: And the pEC50 (TLR8; [1])?
Answer: > 7.00

Question: `CCCN(CCC)C(=O)C1=Cc2ccc(-c3ccc4c(=O)n(CC(=O)NC)c(=O)n(C)c4c3)cc2N=C(N)C1` [Compound 1-9-2] was tested. Which pEC50 (TLR7) did it give?
Answer: < 4.30

Question: And the pEC50 (TLR8; [1])?
Answer: > 7.00

Question: How did the pEC50 (TLR7) turn out when `CCCN(CCC)C(=O)C1=Cc2ccc(-c3ccc4c(=O)n(CCS(C)(=O)=O)c(=O)n(C)c4c3)cc2N=C(N)C1` [Compound 1-9-4] was run?
Answer: < 4.30

Question: What about the pEC50 (TLR8; [1]) of the same compound?
Answer: 6.00 to 7.00

Question: `CCCN(CCC)C(=O)C1=Cc2c(F)cc(-c3ccc4c(=O)n(CC(N)=O)ccc4c3)cc2N=C(N)C1` [Compound 1-10-1] was tested. Which pEC50 (TLR7) did it give?
Answer: < 4.30

Question: What about the pEC50 (TLR8; [1]) of the same compound?
Answer: > 7.00

Question: What does the source list for `CCCN(CCC)C(=O)C1=Cc2c(F)cc(-c3ccc4c(=O)n(CC(=O)N(C)C)ccc4c3)cc2N=C(N)C1` [Compound 1-10-9]?
Answer: pEC50 (TLR7): 5.00 to 6.00; pEC50 (TLR8; [1]): > 7.00

Question: `CCCN(CCC)C(=O)C1=Cc2cc(F)c(-c3ccc4c(=O)n(CC(N)=O)ccc4c3)cc2N=C(N)C1` [Compound 1-11-1] was tested. Which pEC50 (TLR7) did it give?
Answer: < 4.30

Question: What about the pEC50 (TLR8; [1]) of the same compound?
Answer: 5.00 to 6.00

Question: What does the source list for `CCCN(CCC)C(=O)C1=Cc2c(C)cc(-c3ccc4c(=O)n(CCS(C)(=O)=O)ncc4c3)cc2N=C(N)C1` [Compound 2-2-2]?
Answer: pEC50 (TLR7): 4.30 to 5.00; pEC50 (TLR8; [1]): > 7.00
